# Results published in ChEMBL document CHEMBL1145268, “Synthesis and evaluation of 6-hydroxy-7-methoxy-4-chromanone- and chroman-2-carboxamides as antioxidants” (Bioorg Med Chem Lett, 2005).
# Key:
# Rattus norvegicus [1] = organism: Rattus norvegicus; assay: Inhibition concentration against DPPH radical scavenging activity […] was determined; assay type: functional
# Rattus norvegicus [2] = organism: Rattus norvegicus; assay: Inhibition concentration against lipid peroxidation initiated by [Fe2+] and L-ascorbic acid in rat brain homogenates; assay type: functional
IC50 (Rattus norvegicus [1]),IC50 (Rattus norvegicus [2]),SMILES
42.9 µM,119 µM,CCCNC(=O)C1CCc2cc(O)c(OC)cc2O1 (stereo unspecified)
214 µM,> 300 µM,COc1cc2c(cc1O)C(=O)CC(C(N)=O)O2 (stereo unspecified)
16.8 µM,> 300 µM,COc1cc2c(cc1O)CCC(C(=O)O)O2 (stereo unspecified)
21.7 µM,16.6 µM,COc1cc2c(cc1O)CCC(C(=O)NCc1ccccc1)O2 (stereo unspecified)
40.1 µM,3.8 µM,COc1cc2c(cc1O)CCC(C(=O)Nc1ccc([N+](=O)[O-])cc1)O2 (stereo unspecified)
18.2 µM,166 µM,Cc1c(C)c2c(c(C)c1O)CCC(C)(C(=O)O)O2 (stereo unspecified) [TROLOX]
66.4 µM,177 µM,CCCCNC(=O)C1CC(=O)c2cc(O)c(OC)cc2O1 (stereo unspecified)
118 µM,> 300 µM,COc1cc2c(cc1O)C(=O)CC(C(=O)NCc1ccccc1)O2 (stereo unspecified)
80.8 µM,> 300 µM,CCCNC(=O)C1CC(=O)c2cc(O)c(OC)cc2O1 (stereo unspecified)
24.8 µM,51.3 µM,CCCCNC(=O)C1CCc2cc(O)c(OC)cc2O1 (stereo unspecified)
119 µM,293 µM,COc1cc2c(cc1O)C(=O)CC(C(=O)Nc1ccccc1)O2 (stereo unspecified)
24.9 µM,6.9 µM,COc1cc2c(cc1O)CCC(C(=O)Nc1ccccc1)O2 (stereo unspecified)
104 µM,> 300 µM,COc1cc2c(cc1O)C(=O)CC(C(=O)O)O2 (stereo unspecified)
